Data taken from article PMC1065314, “A2B adenosine receptor activity is reduced in neutrophils from patients with systemic sclerosis” (Arthritis Research & Therapy, 2004).

Target: T1, A2B adenosine receptor (Homo sapiens, UniProt P29275)
T1 construct: Aliquots of neutrophil membranes (0.2–0.4 mg proteins) were incubated in a final volume of 250 μl T2 buffer; from tissue; host or cells: neutrophils from healthy volunteers and systemic sclerosis patients (membranes)
T1 sequence (P29275 1-332): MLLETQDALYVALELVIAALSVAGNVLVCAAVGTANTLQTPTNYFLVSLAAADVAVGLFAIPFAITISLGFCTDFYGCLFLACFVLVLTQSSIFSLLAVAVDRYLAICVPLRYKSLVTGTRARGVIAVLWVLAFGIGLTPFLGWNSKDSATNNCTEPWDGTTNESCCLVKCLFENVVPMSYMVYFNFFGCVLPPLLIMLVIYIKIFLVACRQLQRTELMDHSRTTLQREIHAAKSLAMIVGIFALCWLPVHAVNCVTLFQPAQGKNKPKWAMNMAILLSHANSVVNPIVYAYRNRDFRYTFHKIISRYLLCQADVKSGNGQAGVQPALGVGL
Experiment: [3H]NECA binding to A2B AR in neutrophil membranes (plus CPA and SCH58261)
Conditions: read-out: [^3H]NECA Ki; control neutrophil membranes; competition with 20 nmol/l [3H]NECA plus 50 nmol/l CPA and 100 nmol/l SCH58261; mean ± SEM of three experiments; Cheng and Prusoff
Protocol: For membrane preparation, cells were washed twice with 10 mmol/l Tris-HCl buffer, pH 7.4, containing 10 mmol/l MgCl2, in the presence of protease inhibitors (200 μg/ml bacitracine, 160 μg/ml benzamidine, 20 μg/ml trypsin inhibitor [T1]) and centrifuged at 48,000 g for 15 min at 4°C. Pellets were diluted in 20 volumes of T1 buffer, treated with ADA (2 IU/ml) for 60 min at 37°C to remove endogenous adenosine, and washed twice with 50 mmol/l Tris-HCl buffer, pH 7.4, containing 10 mmol/l MgCl2 (T2).
Aliquots of neutrophil membranes (0.2–0.4 mg proteins) were incubated in a final volume of 250 μl T2 buffer. […] After 90 min incubation at 0°C, the reaction was terminated either by vacuum filtration through Whatman GF/C glass fibre filters, accompanied by three washes with ice-cold T2 buffer (4 ml), or by centrifugation at 2900 g for 15 min at 4°C. A2B AR specificity was evaluated through competition experiments, using different AR ligands.

Row | SMILES | Ki [µM]
1 | Nc1nc(Cl)nc2c1ncn2[C@@H]1O[C@H](CO)[C@@H](O)[C@H]1O [2 Cl-adenosine] | 0.954 ± 0.6
2 | O=C(Cc1ccccc1)Nc1nc2ccc(Cl)cc2c2nc(-c3ccco3)nn12 [MRS1220] | > 10
3 | CCCn1c(=O)c2[nH]c(-c3ccc(OCC(=O)Nc4ccc(C(C)=O)cc4)cc3)nc2n(CCC)c1=O [MRS1706] | 0.005 ± 0.0003
